Measurements reported in patent EP0369733A2, “Fluorescent indicator dyes for alkali metal cations, their preparation and use” (THE REGENTS OF THE UNIVERSITY OF CALIFORNIA, priority 1988, dated 1990).
“And” between values parts separate entries of the source, which are not always exact repeats. Equal entries are not always repeated.

Experiments:
[1] = Cation titration followed by absorbance or fluorescence excitation spectra: Ca²⁺ binding; conditions: 0.1 M tetramethylammonium chloride, 1-5 mM tris(hydroxymethyl)aminomethane, high pH; read-out: Dissociation constants (Kd) in mM for Ca²⁺
Experimental: (§1) • Footnote a: For molecular structures, see Fig. 1. • Footnote b: Except where otherwise noted, these dissociation constants were measured with the chelator dissolved in 0.1 M tetramethylammonium chloride, at a pH held high enough with 1-5 mM tris(hydroxymethyl)aminomethane for protonation to be insignificant. The absorbance spectrum, or the fluorescence excitation spectrum for those compounds (2GG, 2NN, 2OO, 2PP, 3NN) with acronyms was measured as a function of the concentration of cation added as a solid or concentrated aqueous solution of the halide salt. No correction has been made for the changing ionic strength of the solution, which started from 0.1 M and increased, but the absorbances and fluorescence amplitudes were applied for dilution of the dye and any slight quenching due to high concentrations of Cl⁻. • Footnote c: These protonation constants were determined in 0.1 M tetramethylammonium chloride, 10 mM tris(hydroxymethyl)aminomethane, titrated with 5 M H₃PO₄ to successively lower pH values measured with a Radiometer PHM84 meter. […] The first number is the wavelength in nanometers, followed in parentheses by 10⁻³ x the corresponding extinction coefficient, M⁻¹cm⁻¹. […] Emission maxima are not corrected for the spectral sensitivity of the emission detection. Quantum efficiencies were measured (13) by comparing the integral of the corrected emission spectrum with the corresponding integral for a solution of quinine bisulfate in 1 N H₂SO₄ of matched absorbance at the excitation wavelength.
(§2) Affinities for other cations were usually measured by titrating aqueous solutions of the indicator with metal chlorides added either as solid or from concentrated stock solutions, taking care to minimize dilution and correct for it. A convenient way to mass-produce premeasured micromole to millimole aliquots of solid NaCl or KCl was to pipet saline solutions into polypropylene micro test tubes and evaporate the water in an oven. The standard ionic background was again 100 mM tetramethylammonium chloride, usually with a few mM of tris(hydroxymethyl)-aminomethane base to hold the pH high enough (pH 8-9) to insure that protonation was negligible. This convenient titration procedure had the slight disadvantage that the ionic strength was not constant, especially when large quantities of a salt had to be added due to weak affinities. […] When constant ionic strength was desired, the chelator was made up at identical concentrations in matched solutions of NaCl, KCl, or tetramethylammonium chloride, then these stocks were mixed in the desired proportions. All measurements were made at room temperature (22°, ±2° C).

[2] = Cation titration followed by absorbance or fluorescence excitation spectra: Na⁺ binding
Experimental: as §1, §2

[3] = Proton dissociation constants in 0.1 M tetramethylammonium chloride; conditions: second value (second protonation), 10 mM Tris titrated with 5 M H₃PO₄
Experimental: (§4) • Footnote a: For molecular structures, see Fig. 1. • Footnote b: Except where otherwise noted, these dissociation constants were measured with the chelator dissolved in 0.1 M tetramethylammonium chloride, at a pH held high enough with 1-5 mM tris(hydroxymethyl)aminomethane for protonation to be insignificant. […] No correction has been made for the changing ionic strength of the solution, which started from 0.1 M and increased, but the absorbances and fluorescence amplitudes were applied for dilution of the dye and any slight quenching due to high concentrations of Cl⁻. • Footnote c: These protonation constants were determined in 0.1 M tetramethylammonium chloride, 10 mM tris(hydroxymethyl)aminomethane, titrated with 5 M H₃PO₄ to successively lower pH values measured with a Radiometer PHM84 meter.
(§5) Proton dissociation constants of the chelators were measured by spectrophotometry or spectrofluorometry of buffered solutions, containing either 100 mM tetramethylammonium chloride as inert supporting electrolyte, or 121.5 mM K⁺, 13.5 mM Na⁺, and 1 mM Mg²⁺ to simulate the cation environment of vertebrate cytoplasm (14). Traces of UV-absorbing impurities in the tetramethylammonium chloride (Alfa Inorganics) were removed by filtration through acid-­washed activated charcoal. The concentration of the tetramethylammonium chloride was then measured by chloride titration, and the absence of significant Na⁺ contamination was verified with a sodium-selective glass electrode (Microelectrodes Inc.). When the chelators contained two protonatable nitrogens, the curve of absorbance or fluorescence versus pH was analyzed by computerized least-squares fitting to the equations for two arbitrary proton equilibria (15), with the added assumption that the two protonations each caused the same change in extinction coefficient or fluorescence.

[4] = physchem; conditions: 0.1 m tetramethylammonium chloride
Experimental: as §4, §5

[5] = Cation titration followed by absorbance or fluorescence excitation spectra: Mg²⁺ binding; conditions: read-out: Dissociation constants (Kd) in mM for Mg²⁺
Experimental: as §1
as §2, with “proportions.” for “proportions. All measurements were made at room temperature (22°, ±2° C).”

[6] = Cation titration followed by absorbance or fluorescence excitation spectra: Li⁺ binding; conditions: for Kd: 0.1 M tetramethylammonium chloride, 1-5 mM tris(hydroxymethyl)aminomethane, high pH, read-out: Dissociation constants (Kd) in mM for Li⁺
Experimental: as §1, §2

[7] = UV absorbance spectra without and with saturating cation; type: physicochemical; conditions: for Absorbance maxima -Na⁺ (wavelength): 100 mM tetramethylammonium chloride plus 1-5 mM Tris; for Absorbance maxima -Na⁺ (wavelength) / Absorbance maxima -Na⁺ (extinction coefficient): no Na⁺; for Absorbance maxima +Na⁺ (wavelength): enough NaCl added (0.2-1 M) to saturate the Na⁺ binding; for Absorbance maxima -Na⁺ (extinction coefficient) / Absorbance maxima +Na⁺ (extinction coefficient): number is 10⁻³ x the extinction coefficient; for Absorbance maxima -Na⁺ (extinction coefficient): lower limits for most compounds; for Absorbance maxima +Na⁺ (extinction coefficient): lower limits, saturating NaCl (0.2-1 M)
Experimental: as §1
(§3) UV absorbance spectra were recorded initially on a Cary 210 and later on a Perkin-Elmer Lambda Array 3840 spectrophotometer. Fluorescence excitation and emission spectra and quantum efficiencies were measured on a Spex Fluorolog 111 as described previously (13).

[8] = physchem; conditions: 126 mm kcl, 14 mm nacl
Experimental: The lowest curve ([Na⁺] = 0) was obtained with 5 µM SBFI in 130 mM KCl, 10 mM MOPS, KOH to pH 7.05, approximately 135 mM total K⁺. The highest curve ([Na⁺] = 135 mM) was analogously recorded from 5 µM SBFI in 130 mM NaCl, 10 mM MOPS, NaOH to pH 7.05. The intermediate curves from 1.35 to 94.5 mM Na⁺ were obtained by successively 1/100, 1/99, 3/98, 1/19, 1/9, 1/4, and 1/2 of the K⁺-rich SBFI solution by the SBFI in Na medium. The excitation bandwidth was 1.85 nm; emission was collected at 500 nm with 9.3 nm bandwidth. […] The lowest curve was obtained in 130 mM NaCl, 10 mM MOPS, NaOH to pH 7.05. The highest curve was in 130 mM KCl, 10 mM MOPS, KOH to pH 7.05. The intermediate curves with 13.5 to 112.5 mM K⁺ were obtained by iteratively replacing 1/10, 1/9, 1/6, 1/4, 1/3, and 1/2 of the low K⁺ medium by the 135 mM KCl solution of PBFP.
Proton dissociation constants of the chelators were measured by spectrophotometry or spectrofluorometry of buffered solutions, containing either 100 mM tetramethylammonium chloride as inert supporting electrolyte, or 121.5 mM K⁺, 13.5 mM Na⁺, and 1 mM Mg²⁺ to simulate the cation environment of vertebrate cytoplasm (14). […] When the chelators contained two protonatable nitrogens, the curve of absorbance or fluorescence versus pH was analyzed by computerized least-squares fitting to the equations for two arbitrary proton equilibria (15), with the added assumption that the two protonations each caused the same change in extinction coefficient or fluorescence. This assumption was based on the presence of two identical chromophores in each chelator and produced good fits to the experimental data.

[9] = Fluorescence excitation/emission spectra and quantum efficiency; type: physicochemical; conditions: for Emission maxima -Na⁺: 100 mM tetramethylammonium chloride; for Emission maxima -Na⁺ / Quantum efficiency -Na⁺: no Na⁺; for Emission maxima -Na⁺ / Emission maxima +Na⁺: not corrected for detector sensitivity; for Quantum efficiency -Na⁺ / Quantum efficiency +Na⁺: relative to quinine bisulfate in 1 N H₂SO₄ (0.55); for Emission maxima +Na⁺: saturating NaCl; for Quantum efficiency +Na⁺: saturating Na⁺
Experimental: as §1, §3

[10] = 0.1 M tetramethylammonium chloride, 1-5 mM tris(hydroxymethyl)aminomethane, pH high enough for protonation to be insignificant, 22°, read-out: Dissociation constants (Kd) in mM for Na⁺
[11] = 0.1 M tetramethylammonium chloride, 1-5 mM tris(hydroxymethyl)aminomethane, high pH
[12] = footnote h: 3.0 M ionic strength (3.0 M NaCl mixed with 3.0 M tetramethylammonium chloride), read-out: Dissociation constants (Kd) in mM for Na⁺
[13] = association constant, inert background cation (tetramethylammonium)

Compound | Kd [1] | Kd [2, 10] | pKa [3] | pKa [4] | Kd [5, 11] | Kd [6] | Absorbance maxima -Na⁺ (wavelength) [7] | Absorbance maxima +Na⁺ (wavelength) [7] | Absorbance maxima -Na⁺ (extinction coefficient) [7] | Absorbance maxima +Na⁺ (extinction coefficient) [7] | pKa [8] | Emission maxima -Na⁺ [9] | Emission maxima +Na⁺ [9] | Kd [2, 12] | Na⁺ affinity [2, 13] | other results
COc1cc(NC(C)=O)ccc1N1CCOCCOCCN(c2ccc(NC(C)=O)cc2OC)CCOCC1 [Compound 2JJ, N,N-bis-(4-acetamido-2-methoxyphenyl)-diaza[15]-crown-5] | > 100 mM | 12 mM | 5.0 | 6.31 | > 100 mM | 72 mM | 261 nanometers | 280 nanometers and 249 nanometers | 10800 M⁻¹ cm⁻¹ | 5400 M⁻¹ cm⁻¹ and 10700 M⁻¹ cm⁻¹ |  |  |  |  |  | Na⁺ affinity ([2]; at I = 0.15): 83 M⁻¹
COc1cc2cc(-c3ccc(C(=O)O)c(C(=O)O)c3)oc2cc1N1CCOCCOCCN(c2cc3oc(-c4ccc(C(=O)O)c(C(=O)O)c4)cc3cc2OC)CCOCC1 [Compound 2NN, N,N-bis-(2-(3,4-dicarboxyphenyl)-5-methoxybenzofuran-6-yl)-diaza[15]-crown-5] | 40 mM | 8.5 mM | 5.5 | 6.3 | 18 mM |  | 342 nanometers | 334 nanometers | 45500 M⁻¹ cm⁻¹ | 51600 M⁻¹ cm⁻¹ | 6.4 | 528 nanometers | 505 nanometers |  |  | Kd ([2]; summary statement, conditions not specified, read-out: dissociation constant (Na⁺), range achieved): 5 to 20 mM; Quantum efficiency -Na⁺ [9]: .036; Quantum efficiency +Na⁺ [9]: .091
CC(=O)Nc1ccc(N2CCOCCOCCN(c3ccc(NC(C)=O)c4cccnc34)CCOCC2)c2ncccc12 [Compound 2CC, N,N-bis-(5-acetamido-8-quinolinyl)-diaza[15]-crown-5] | 0.075 mM | 5.3 mM | 5.43 | 6.85 |  | 2.8 mM | 346 nanometers and 250 nanometers | 304 nanometers and 230 nanometers |  |  |  |  |  | 2.4 mM |  | Na⁺ affinity ([2]; depending on ionic strength): 190 to 415 M⁻¹; Kd ([5]; footnote i: free [Mg²⁺] controlled by Mg²⁺-nitrilotriacetate buffers at pH 8.5): 0.078 mM; affinity for Li⁺ (in words) ([6]; compared with its Na⁺ affinity): comparable to that for Na⁺
COc1cc2cc(-c3ncc(C(=O)O)o3)oc2cc1N1CCOCCOCCN(c2cc3oc(-c4ncc(C(=O)O)o4)cc3cc2OC)CCOCC1 [Compound 2OO, N,N-bis-(2-(5-carboxyoxazol-2-yl)-5-methoxybenzofuran-6-yl)-diaza[15]-crown-5] |  | 50 mM | 4.15 | 5.34 | 63 mM |  | 355 nanometers | 343 nanometers | 25000 M⁻¹ cm⁻¹ | 27000 M⁻¹ cm⁻¹ | 4.82 | 515 nanometers | 500 nanometers | 22 mM | 20 M⁻¹ | Quantum efficiency -Na⁺ ([9]; listed as 2OO (SBFO)): .14; Quantum efficiency -Na⁺ ([9]; listed as SBFO): 0.14; Quantum efficiency +Na⁺ ([9]; listed as 2OO (SBFO)): .44; Quantum efficiency +Na⁺ ([9]; listed as SBFO): 0.44
CC(=O)Nc1ccc(N2CCOCCOCCOCCOCC2)c2ncccc12 [Compound 1C, N-(5-acetamido-8-quinolinyl)-aza[15]-crown-5] | 10 mM | 67 mM |  | < 7 | 12 mM | 63 mM | 349 nanometers and 252 nanometers | 304 nanometers and 229 nanometers |  |  |  |  |  |  | 15 M⁻¹ | 
